Measurements: patent publication US20090023801A1, “INHIBITORS OF BETA AMYLOID PRODUCTION” (Wyeth, priority 2007, published 2009)
Where two headings read alike, the source gives them in different places.

Legend:
Notch = test: Stable transfection Notch reporter assay (HES1-SEAP, P8H6 CHO-K1 cells); format: cell-based; settings: CHO-K1
Description: A concern with compounds that lower beta amyloid synthesis by targeting the γ-secretase enzyme is that this enzyme also is involved in the cleavage of other substrates besides APP especially the Notch substrate. […] Thus, a selectivity of APP cleavage over Notch cleavage is desired in order to avoid G.I. side effects. The activity of compounds in cleaving Notch can be measured in a whole cell functional Notch assay. This is an assay to determine the effects of compounds on the S3 (γ-secretase like) processing of Notch. […] SEAP transactivation is then detected by luminescent assay. The assay consists of the following protocol:
• (i) Materials: The P8H6 inducible stable cell line was derived from T-REX™ CHO-K1, stably expressing Tet repressor, Notch (pZX1) and HES1-SEAP (pZX2) reporter constructs. A Wallac 1450 Victor™ Luminescence Counter was used to measure luminescent signal. All other materials and reagents were of highest quality available and were all from commercial sources.
(ii) Construct Description: • pZX1: Mouse Notch1 with deleted extracellular domain cloned at Hind III/Xho I sites of pcDNA5/TO vector: Ampicillin Resistance for bacteria, hygromycin resistance for cells. • pZX2: Mouse HES1 promoter together with reporter gene SEAP cloned at Not I/Apa I sites of pcDNA3.1 with deletion of CMV promoter.
(iii) Procedure: • 1. P8H6 cells were grown in Ham's F12 complete growth media containing 10% FBS (reduced tetracycline), 2 mM of L-glutamine, 1 mg/mL of hygromycin, 1 mg/mL of the GENETICIN® antibiotic, 10 μg/mL of Blasticidin and 1% Penicillin-Streptomycin were supplemented with doxycline with final induction concentration of 0.2 μg/mL. The cells were seeded in 96-well tissue culture plate at 8000/well. • 2. Test compounds in 0.2% DMSO/25 mM HEPES buffer were diluted at final working concentration of 20 μM, 6.7 μM, 2.2 μM, 741 nM, 247 nM, 82 nM, 27 nM, 9 nM and 3 nM. Diluted compounds then were added to P8H6 cells in 96-well tissue culture plates. For vehicle samples, the same volume of 0.2% DMSO/25 mM HEPES buffer was added. • 3. Cells were incubated at 37° C., 5% CO2 for 48 hours. • 4. SEAP levels in the conditioned media were assessed using the Clontech GREATESCAPE™ SEAP Chemiluminescence detection kit according to the manufacturer's instruction. Briefly, 15 μL of conditioned media were mixed with 45 μL of the dilution buffer and incubated at 65° C. for 45 minutes. After cooling, assay buffer was added and the sample was incubated with the CSPD® substrate. • 5. Luminescence was measured in a Wallac 1450 VICTOR™ luminescence counter.
EC50 was the compound concentration that was estimated to provide a 50% reduction of maximum response in Notch induced SEAP levels. An EC50 from a given assay may only be used for averaging if it has met the following criteria: • 1. There is a lower dose in the assay which gives a % Notch Activity>60% (bracketing lower dose). • 2. There is a higher dose in the assay which gives a % Notch Activity<30% (bracketing higher dose), and the maximum inhibition is reached (e.g., a given compound might achieve 80% inhibition (% Notch activity is about 20%) over several doses, and therefore 20% would be considered the maximum inhibition.
Data were analyzed in Microsoft EXCEL® format. EC50 was calculated by LSW using sigmoidal inhibition from B0 to nsb model (model 59). Each assay plate contained a dose response curve for the reference compound 5-chloro-N-[(1S,2R)-2-ethyl-4,4,4-trifluoro-1-(hydroxymethyl)butyl]thiophene-2-sulfonamide. This compound is discussed in International Patent Publication No. WO 2004/092155. The following data is not shown in that publication.
(§1) The beta amyloid inhibitory activity of compounds of formula (I) was determined using the MSD ECL assay. Inhibition of Notch processing was measured using the stable transfection reporter assay See, Table 1 below.

Aβ40 = test: Aβ-lowering MSD electrochemiluminescent assay of conditioned media from CHO cells expressing human APP (Aβ40); format: cell-based
Experimental: (§2) The activity of compounds in lowering the generation of Aβ40 and Aβ42, the most abundant forms of beta amyloid, from APP (amyloid precursor protein) was measured in an electrochemiluminescent (ECL) assay of conditioned media from chinese hamster ovary (CHO) cells stably expressing the human amyloid precursor protein (APP) reporter construct, hAPP-REPNL751 (Sughir, R. et al.; J. Biolog. Chem (1992) 267: 25602-25608). Aβ peptides were secreted at high levels into cell culture media by cells carrying the human APP transgene; compounds were tested for their capacity to modulate this production. The Aβ peptide in the conditioned medium was quantitated by a sandwich immunoassay with the MSD ECL detection system. Cell metabolism was measured using a 3-(4,5-dimethylthiazol-2-yl)-5-(3-carboxymethoxypheny)-2-(4-sulfophenyl)-2H-tetrazolium, inner salt (MTS) salt kit (which measures the mitochondrial activity of cells by the bioreduction of Owen's reagent). This assay consists of the following protocol:
(§3) 1. hAPP-REPNL751CHO cells were seeded into 96 well plates and incubated until about 60-70% confluence.
(§4) 2. Medium was removed, cells were washed, and fresh serum-free medium (Ultraculture) was put on cells.
(§5) 3. Compounds were diluted and then added to the cell medium.
(§6) 4. Cells were incubated, with compounds, for indicated times.
(§7) 5. Streptavidin coated Meso Scale Discover (MSD) plates (MSD standard MULTI-ARRAY® 96 plate, cat.# P11SA-1) were washed […] with TTBS (Tris-buffered saline, the TWEEN® 20 reagent).
(§8) 6. 20 μL conditioned medium were removed from the cells and added to the TTBS prewashed MSD plates.
(§9) 7. Standard curve dilutions of synthetic Aβ40 and Aβ42 were prepared and added to the MSD plates.
(§10) 8. A reagent mix was prepared in 1% MSD Blocker A (appropriate concentration of biotinylated 6E10 antibody, detection antibodies to Aβ40, Aβ42, and MSD ruthinylated tag antibody).
(§11) 9. 20 μL reagent mix was distributed to sample plate.
(§12) 10. Plates were incubated with shaking overnight at 4° C.
(§13) 11. Plates were washed 3× with TTBS.
(§14) 12. 150 μL read buffer was added per well (MSD® Read Buffer T, cat#R92TC-2, made 1× with distilled water).
(§15) 13. Plates were read in a MSD® plate reader within 2 hours.
(§16) Assays were accepted or rejected based upon specific performance criteria, including regression coefficient of standard curve, adequate signal to noise ratio, sample signals lying within the range of the standard curve, etc.: the specific parameters were established for each tissue type prior to performing an assay, and were included in the full analytical procedure.
(§17) Plate data from both assays (MTS and MSD® ELISA) were transferred into a Microsoft EXCEL® spreadsheet to determine the toxicity, and inhibition caused by the compounds. Standard curves of Aβ were generated using LSW™ toolbar Hill slope model 42, with 1/y weighting (general sigmoidal curve with Hill slope, a to d; y=(a−d)/(1+(x/c)̂b)+d). Inhibition data were expressed as a percent of the average of the Aβ values in the vehicle treated wells (all values are background subtracted), using LSW™ toolbar Hill Slope model 68 (ligand-receptor binding/sigmoidal, with Hill slope and Bmax to 0; y=Bmax*(1−(x̂n/(K̂n+x̂n))), after raw values were translated/transformed into absolute Aβ values utilizing the standard curve generated as described above (e.g. back calculate absolute Aβ values from the raw values utilizing standard curve). Onboard controls to verify assay performance were checked to assure that amyloid is within linear detection range of the assay, that cells were expressing correctly, and that the MSD itself was performing according to quality control (QC) standards.
(§18) % Inhibition>50% may be considered a positive response or an interesting result in this assay; EC50 determination were determined.
as §1

Aβ42 = test: Aβ-lowering MSD electrochemiluminescent assay of conditioned media from CHO cells expressing human APP (Aβ42); format: cell-based
Experimental: as §2, §3, §4, §5, §6, §7, §8, §9, §10, §11, §12, §13, §14, §15, §16, §17, §18, §1

[1] = stable transfection Notch reporter assay, 48 hours, read-out: Notch EC50 for inhibition of Notch
[2] = MSD electrochemiluminescent assay, hAPP-REPNL751 CHO cells, read-out: Aβ40 EC50 for inhibition of Aβ40
[3] = MSD electrochemiluminescent assay, hAPP-REPNL751 CHO cells, read-out: Aβ42 EC50 for inhibition of Aβ42
[4] = Notch assay reference compounds, read-out: EC50 (Notch assay)
[5] = CHO, beta amyloid assay reference compounds, read-out: EC50 Aβ40
[6] = CHO, beta amyloid assay reference compounds, read-out: EC50 Aβ42

Row | SMILES | EC50 (Notch; [1]) | EC50 (Aβ40; [2]) | EC50 (Aβ42; [3]) | EC50 (Notch; [4]) | EC50 (Aβ40; [5]) | EC50 (Aβ42; [6]) | melting point
1 | O=S(=O)(N[C@H](CO)[C@H](c1ccccc1)C(F)(F)F)c1ccc(Cl)s1 (stereo in doubt) [Example 5, 5-Chloro-N-[(1S*,2S*)-3,3,3-trifluoro-1-hydroxymethyl-2-phenylpropyl]thiophene-2-sulfonamide] | > 20000 nM | 7520 nM | 7200 nM | – | – | – | –
2 | CC[C@H](CC(F)(F)F)[C@@H](CO)NS(=O)(=O)c1ccc(Cl)s1 [5-chloro-N-[(1S,2R)-2-ethyl-4,4,4-trifluoro-1-(hydroxymethyl)butyl]thiophene-2-sulfonamide, reference compound] | – | – | – | 225 nM | 6 nM | 5 nM | –
3 | O=S(=O)(N[C@H](CO)[C@@H](c1ccccc1)C(F)(F)F)c1ccc(Cl)cc1 [Example 6, 4-Chloro-N-[(1S,2R)-3,3,3-trifluoro-1-(hydroxymethyl)-2-phenylpropyl]benzenesulfonamide] | > 20000 nM | 1330 nM | 1900 nM | – | – | – | 129 to 131 °C

Other lines, results leading:

Row | EC50 (Notch; [1]) | EC50 (Aβ40; [2]) | EC50 (Aβ42; [3]) | EC50 (Notch; [4]) | EC50 (Aβ40; [5]) | EC50 (Aβ42; [6]) | melting point | SMILES
4 | – | – | – | 68 nM | 109 nM | 79 nM | – | CC(C)[C@H](O)C(=O)N[C@@H](C)C(=O)N[C@@H]1C(=O)N(C)CCc2ccccc21 [(2S)-2-hydroxy-3-methyl-N-((1S)-1-methyl-2-{[(1S)-3-methyl-2-oxo-2,3,4,5-tetrahydro-1H-3-benzazepin-1-yl]amino}-2-oxoethyl)butanamide, reference compound]
5 | > 20000 nM | 710 nM | 760 nM | – | – | – | – | O=S(=O)(NC(CO)C(c1ccccc1)C(F)(F)F)c1ccc(Cl)s1 (stereo not shown) [Example 1, 5-Chloro-N-[3,3,3-trifluoro-1-(hydroxymethyl)-2-phenylpropyl]thiophene-2-sulfonamide]
6 | 3750 nM | 238 nM | 197 nM | – | – | – | – | O=S(=O)(N[C@H](CO)[C@@H](c1ccccc1)C(F)(F)F)c1ccc(Cl)s1 [Example 4, 5-Chloro-N-[(1S,2R)-3,3,3-trifluoro-1-(hydroxymethyl)-2-phenylpropyl]thiophene-2-sulfonamide]
